Results: PMC5118533, “Phase II Trial of Angiotensin-(1-7) for the Treatment of Patients with Metastatic Sarcoma” (Sarcoma, 2016)
Read-outs that look alike come from different tables or passages of the source.

Columns and labels:
[1] = Phase II trial: adverse events (CTCAE v3.0); type: in vivo, human
Procedure: Ang-(1-7) was administered by subcutaneous injection once daily continuously. One cycle was defined as a 21-day period. Toxicities were assessed weekly during the first cycle and on the first day of each subsequent cycle. In the absence of unacceptable treatment-related toxicity, patients continued treatment until disease progression.
Two dose cohorts were planned. In the first cohort, twenty patients were treated at a dose of 20 mg daily which is similar to the weight-based dose of 400 mcg/kg identified as the MTD in the phase I study. Unlike the phase I study, this study utilized continuous daily dosing rather than five days every three weeks. A planned interim safety evaluation was performed after the enrollment of 10 patients in the first cohort. […] Patients in this cohort would have received Ang-(1-7) at a dose of 10 mg daily if excessive toxicities had been observed in the 20 mg cohort. Safety events that would trigger dose deescalation included 3 strokes in any cohort or other evidence of excessive toxicity.
Tumor measurements were performed using RECIST version 1.1 prior to initiation of treatment and then every two cycles until disease progression or unacceptable toxicity. Toxicities were graded using the Common Terminology Criteria for Adverse Events, version 3.0. […]

[2] = phase I, ref [16], cited from earlier work
From the text: A phase I trial using subcutaneous administration of Ang-(1-7) for the treatment of patients with advanced solid tumors was previously reported. This study evaluated the maximum tolerated dose (MTD), toxicities, and pharmacokinetics of Ang-(1-7) when given subcutaneously once daily for five consecutive days on a 21-day cycle. This study identified 400 mcg/kg as the MTD for this schedule.

[3] = Plasma Ang-(1-7) concentration, radioimmunoassay; type: in vivo; conditions: human, sc, median, RIA, P < 0.05 vs baseline
Procedure: In the phase I trial, statistically significant changes in PlGF concentrations were identified 4 hours after the first Ang-(1-7) injection. To prospectively evaluate this biomarker, PlGF levels as well as VEGF, Ang-(1-7), Ang II, and Ang I were measured prior to the first dose, 4 hours after the first dose, and after 21 days of treatment in the phase II trial. Blood samples were immediately placed on ice and processed within 30 minutes of collection. For the angiotensin peptides, blood was taken in an EDTA containing tube with a cocktail of inhibitors to prevent in vitro generation or degradation of peptides, as previously described. Plasma samples were stored at −80°C. Concentrations of Ang-(1-7) (developed by laboratory), Ang II (Alpco, Windham, NH), and Ang I (Peninsula, San Carlos, CA) were measured by the Hypertension Core Facility of Wake Forest University using three established radioimmunoassay methods. Aliquots of plasma from the same time points were assayed by Aushon Biosystems (Billerica, MA) using Searchlight ELISA technology to quantify circulating vascular endothelial growth factor (VEGF) and placental growth factor (PlGF). […]
The study was designed with 87% power to detect a response rate by RECIST criteria of 10% in the study population. […] Levels of biomarker expression over time were evaluated using nonparametric, Wilcoxon signed rank tests. […]

CC[C@H](C)[C@H](NC(=O)[C@H](Cc1ccc(O)cc1)NC(=O)[C@@H](NC(=O)[C@H](CCCNC(=N)N)NC(=O)[C@@H](N)CC(=O)O)C(C)C)C(=O)N[C@@H](Cc1c[nH]cn1)C(=O)N1CCC[C@H]1C(=O)O [Ang-(1-7), Angiotensin-(1-7)]
deaths on study or within 30 days of completing treatment ([1]; 20 patients, all attributed to progressive cancer, felt unrelated to treatment): Three | pregnancy outcome ([1]; in vivo): delivered a healthy child | serious adverse event at least possibly related ([2]; 400 mcg/kg dose level): deep vein thrombosis | half-life at the MTD ([2]; 400 mcg/kg s.c., considerable intra- and interpatient variability): 36 min | serious adverse event at least possibly related ([2]; 700 mcg/kg dose level (first event named)): stroke | serious adverse event at least possibly related ([2]; 700 mcg/kg dose level (second event named)): cranial neuropathy | maximum tolerated dose (MTD) ([2]; s.c. once daily for five consecutive days on a 21-day cycle, advanced solid tumors): 0.4 mg/kg | level at 4 h ([3]; 4 hours after first dose, 20 mg s.c.): 0.0611 ng/mL | level at 528 h ([3]; day 22, 20 mg daily s.c.): 0.0412 ng/mL
